pEC50: −log10 of the molar value.
Tests used:
CFTR ΔF508 mutant [1] = target: T1, CFTR ΔF508 mutant (Homo sapiens, UniProt P13569, DEL508-508); experiment: YFP-halide influx assay for the CFTR-ΔF508 mutation (384 well, CFBE41o- cells, FDSS/μCell); assay type: cell-based; conditions: forskolin 10.67 μM, fluorescence after 36 seconds, read-out: EC50 measured by YFP-halide influx assay for the CFTR-ΔF508
T1 construct: expressed in transfected cells; host or cells: CFBE41o- (adenoviral transduction)
Procedure, shortened: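 CFBE41o- cells were adenovirally transduced with ΔF508 CFTR and the YFP H148Q/I152L reporter. Cells were then held 24 h at 27 °C or treated 24 h at 37 °C with a CFTR modulator. Iodide-induced quench was recorded for 2 min, and EC50 was derived from 1−F/F0 at 36 s against compound concentration.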

CFTR-G178R = target: T2, CFTR-G178R (Homo sapiens, UniProt P13569, G178R); experiment: YFP-halide influx assay for the CFTR-G178R; assay type: cell-based; conditions: read-out: EC50 measured by YFP-halide influx assay for the CFTR-G178R
T2 construct: expressed in transfected cells
Procedure, shortened: (§1)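 HEK293 cells reverse-transfected with mutant CFTR and halide-sensitive YFP H148Q/I152L/F47L reporter, then expressed 24 h at 37 °C, 5% CO2. Fluorescence quenching recorded for 7 s after I^− injection; response expressed as 1−F/F0, with EC50 derived from response versus compound concentration.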

CFTR-G1349D = target: T3, CFTR-G1349D (Homo sapiens, UniProt P13569, G1349D); experiment: YFP-halide influx assay for the CFTR-G1349D; assay type: cell-based; conditions: CFTR-G1349D mutant; read-out: EC50 measured by YFP-halide influx assay for the CFTR-G1349D
T3 construct: expressed in transfected cells
Procedure, shortened: as §1

CFTR G551D mutant = target: T4, CFTR G551D mutant (Homo sapiens, UniProt P13569, G551D); experiment: YFP-halide influx assay for the CFTR-G551D mutation (HEK293 cells); assay type: cell-based; conditions: HEK293 cells expressing CFTR G551D and YFP reporter; forskolin 10.67 μM; read-out: EC50 measured by YFP-halide influx assay for the CFTR-G551D
T4 construct: expressed in transfected cells; host or cells: HEK293 (reverse transfection with plasmids)
Procedure, shortened: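 HEK293 cells reverse-transfected with CFTR G551D and halide-sensitive YFP, expressed 24 h at 37 °C. Iodide-induced fluorescence quench recorded for 7 s after I^− injection; response as 1−F/F0, EC50 from concentration plot.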

CFTR ΔF508 = target: T5, CFTR ΔF508 (Homo sapiens, UniProt P13569, DEL508-508); experiment: TECC assay, primary bronchial epithelial cells from CF patients homozygous for CFTR ΔF508; assay type: cell-based; conditions: primary bronchial epithelial cells, CFTR ΔF508; several values in a cell = repeat determinations
T5 construct: host or cells: primary bronchial epithelial cells from CF patients homozygous for ΔF508, pre-treated with VX809
Method: 7.2.1. Primary Bronchial Epithelial Cells Protocol
The TECC (Tranepithelial Clamp Circuit, EP-design) assay measures the functionality of the cystic fibrosis Transmembrane Conductance regulator (CFTR) by measuring the short circuit current (ISC) generated over the basolateral and apical membrane of lung epithelial cells. In TECC the transepithelial potential PD and transepithelial resistance (Rt) are measured in an open circuit and transformed to ISC using Ohm's law. 24 wells can be measured simultaneously allowing a higher throughput compared to Ussing chambers.
For this purpose, bronchial epithelial cells isolated from CF patients homozygous for the CFTR ΔF508 mutation (hAEC-CF, Epithelix) are plated on type IV collagen-coated Transwell supports (Costar). Human airway epithelia are generated by provision of an air-liquid interface for 21 days to form well-differentiated polarized cultures that resemble in vivo pseudo-stratified ciliated epithelium (Fulcher et al., 2005). In the case of the homozygous ΔF508 CFTR samples, the differentiated cells are treated with 3 μM VX809 (2626 South Loop West, Suite 225, Houston, Tex. 77054 USA, Cat n#51565) to allow sufficient expression of properly folded CFTR protein on the membrane (48 hours basolateral treatment and 24 hours apical treatment), prior to electrophysiological recordings. […] G551D/ΔF508, differentiated cells are used as such for the recordings.
Information on the compounds can be retrieved on the homozygous ΔF508 CFTR samples looking at increased CFTR activity when compounds are added in an acute mode or in a chronic mode. On G551D/ΔF508 CFTR heterozygous samples compounds are added in an acute mode to the differentiated cells.
For the acute mode, for electrophysiological recording, the human airway epithelia are mounted in the TECC heating plate for electrophysiological measurement and kept at 37° C. The epithelia are bathed in a NaCl-Ringer solution (120 mM NaCl, 25 mM NaHCO3, 1.2 mM CaCl2, 1.2 mM MgCl2, 0.8 mM KH2PO4, 0.8 mM K2HPO4, pH 7.4, 5 mM glucose) on both the basolateral and apical sides. Apical amiloride is used to inhibit the endogenous ENaC currents while forkolin is applied on both apical and basolateral side to stimulate CFTR. After forskolin triggering, compounds are added on both sides to test their potential for increasing CFTR gating. Measurements are done during a 20 minute timeframe with recordings every 2 minutes. The increase in ISC is used as a measure for the increased CFTR activity, EC50 values can be generated by measuring impact of different concentrations of compound on ISC on primary cells, for this purpose each transwell is treated with a different compound concentration. Inh-172, an inhibitor specific for CFTR, is used to test the specificity of the tested compounds.
For the chronic mode, the differentiated cells are treated with 3 μM VX809 (2626 South Loop West, Suite 225, Houston, Tex. 77054 USA, Cat n#51565) and potentiator compounds at different concentrations (48 hours basolateral treatment and 24 hours apical treatment), prior to electrophysiological recordings. For electrophysiological recording, the human airway epithelia are mounted in the TECC heating plate for electrophysiological measurement and kept at 37° C. […]

CFTR-R117H = target: T6, CFTR-R117H (Homo sapiens, UniProt P13569, R117H); experiment: YFP-halide influx assay for the CFTR-R117H; assay type: cell-based; conditions: CFTR-R117H mutant; read-out: EC50 measured by YFP-halide influx assay for the CFTR-R117H
T6 construct: expressed in transfected cells
Procedure, shortened: as §1

CFTR-S549N = target: T7, CFTR-S549N (Homo sapiens, UniProt P13569, S549N); experiment: YFP-halide influx assay for the CFTR-S549N; assay type: cell-based; conditions: CFTR-S549N mutant; read-out: EC50 measured by YFP-halide influx assay for the CFTR-S549N
T7 construct: expressed in transfected cells
Procedure, shortened: as §1

CFTR G551D = CFTR G551D (Homo sapiens, UniProt P13569, G551D); experiment: TECC assay, FRT cells stably transfected with G551D CFTR; assay type: cell-based; conditions: high expression CFTR-G551D cells, several values in a cell = repeat determinations
Method: 7.2.3. FRT-CFTR G551D Protocol
For G551D recordings, Fish Rat Thyroid (FRT) cells stably transfected with G551D CFTR (a low CFTR-G551D expressing cell line and a high expressing CFTR-G551D cell line from Rosalind Franklin University of medicine and science, Chicago, Ill.) are plated on Transwell supports (Costar 6.5 mm Diameter, […]). The cells are grown for 8-10 d under liquid-liquid interface conditions prior to electrophysiological readings. For electrophysiological recording, the FRT-G551D cells are mounted in the TECC heating plate for electrophysiological measurement and kept at 37° C. The epithelia are bathed in hepes buffered culturing medium without FBS on both the basolateral and apical sides. Apical amiloride is used to inhibit the endogenous ENaC currents while forkolin is applied on both apical and basolateral side to stimulate CFTR. After forskolin triggering, compounds are added on both sides to test their potential for increasing CFTR gating. Measurements are done during a 10 minute timeframe with recordings every 2 min. The increase in ISC is used as a measure for the increased CFTR activity, EC50 values can be generated by measuring impact of different concentrations of compound on ISC on the cells, for this purpose each transwell is treated with a different compound concentration. Inh-172, an inhibitor specific for CFTR, is used to test the specificity of the tested compounds.
When subjected to this protocol, the following EC50 are measured.

CFTR ΔF508 mutant [2] = target: T1, CFTR ΔF508 mutant; experiment: YFP-halide influx assay for the CFTR-ΔF508 mutation (96 well, CFBE41o- cells); assay type: cell-based; conditions: compounds of the invention, 96 well, forskolin 10.67 μM, read-out: EC50 measured by YFP-halide influx assay for the CFTR-ΔF508
Procedure, shortened: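 CFBE41o- cells were adenovirally transduced with CFTR ΔF508 and the halide-sensitive YFP H148Q/I152L. They were then corrected either at 27 °C for 24 h or with a CFTR modulator for 24 h at 37 °C. After iodide injection, YFP quenching over 7 s was expressed as 1−F/F0, and EC50 was derived from the concentration–response plot.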

Lung distribution study = assay type: in vivo, Sprague-Dawley rats; conditions: male, Sprague-Dawley, rat, plasma, oral, 10 mg/kg, exposure values
Method: Sprague-Dawley rats (male, 5-6 weeks old) are obtained from Janvier (France). Rats are acclimatized for at least 5 days before treatment and are kept on a 12 h light/dark cycle. Temperature is maintained at approximately 22° C., and food and water are provided ad libitum. Two days before administration of the test compounds, rats may undergo surgery to place a catheter in the jugular vein under isoflurane anesthesia. After the surgery, rats are housed individually. Rats are deprived of food for at least 16 h before oral dosing and 6 h after. Water is provided ad libitum.
8.7.3. Lung Distribution Studies
Compounds are formulated in 0.5% methylcellulose and EtOH/PEG 200/Methylcellulose 0.5% (10/25/65 v/v/v) by the oral route. Test compounds are orally dosed as a single esophageal gavage at 10 mg/kg under a dosing volume of 5 mL/kg. Each group consists of 12 rats. At each time point, typically 1, 3, 6 and 24 h, animals are euthanized and blood and lung samples are collected. Whole blood samples are centrifuged at 1500 g for 10 min and the resulting plasma samples, along with the lung samples, are stored at −20° C. pending analysis.
8.7.4. Quantification of Compound Levels in Plasma and Lung Samples
Lung samples are milled in the presence of ceramic beads and proteins present in plasma and lung samples are precipitated with an organic solvent. Concentrations of each test compound are determined by an LC-MS/MS method in which the mass spectrometer is operated in positive or negative electrospray mode.
For each animal, the lung-to-plasma ratio is determined as the ratio between compound concentration in lung and in plasma. At each sampling time point, mean, standard error of the mean (sem) and coefficient of variation (CV %) are calculated using data from three animals.

T7 sequence (P13569 whole entry S549N): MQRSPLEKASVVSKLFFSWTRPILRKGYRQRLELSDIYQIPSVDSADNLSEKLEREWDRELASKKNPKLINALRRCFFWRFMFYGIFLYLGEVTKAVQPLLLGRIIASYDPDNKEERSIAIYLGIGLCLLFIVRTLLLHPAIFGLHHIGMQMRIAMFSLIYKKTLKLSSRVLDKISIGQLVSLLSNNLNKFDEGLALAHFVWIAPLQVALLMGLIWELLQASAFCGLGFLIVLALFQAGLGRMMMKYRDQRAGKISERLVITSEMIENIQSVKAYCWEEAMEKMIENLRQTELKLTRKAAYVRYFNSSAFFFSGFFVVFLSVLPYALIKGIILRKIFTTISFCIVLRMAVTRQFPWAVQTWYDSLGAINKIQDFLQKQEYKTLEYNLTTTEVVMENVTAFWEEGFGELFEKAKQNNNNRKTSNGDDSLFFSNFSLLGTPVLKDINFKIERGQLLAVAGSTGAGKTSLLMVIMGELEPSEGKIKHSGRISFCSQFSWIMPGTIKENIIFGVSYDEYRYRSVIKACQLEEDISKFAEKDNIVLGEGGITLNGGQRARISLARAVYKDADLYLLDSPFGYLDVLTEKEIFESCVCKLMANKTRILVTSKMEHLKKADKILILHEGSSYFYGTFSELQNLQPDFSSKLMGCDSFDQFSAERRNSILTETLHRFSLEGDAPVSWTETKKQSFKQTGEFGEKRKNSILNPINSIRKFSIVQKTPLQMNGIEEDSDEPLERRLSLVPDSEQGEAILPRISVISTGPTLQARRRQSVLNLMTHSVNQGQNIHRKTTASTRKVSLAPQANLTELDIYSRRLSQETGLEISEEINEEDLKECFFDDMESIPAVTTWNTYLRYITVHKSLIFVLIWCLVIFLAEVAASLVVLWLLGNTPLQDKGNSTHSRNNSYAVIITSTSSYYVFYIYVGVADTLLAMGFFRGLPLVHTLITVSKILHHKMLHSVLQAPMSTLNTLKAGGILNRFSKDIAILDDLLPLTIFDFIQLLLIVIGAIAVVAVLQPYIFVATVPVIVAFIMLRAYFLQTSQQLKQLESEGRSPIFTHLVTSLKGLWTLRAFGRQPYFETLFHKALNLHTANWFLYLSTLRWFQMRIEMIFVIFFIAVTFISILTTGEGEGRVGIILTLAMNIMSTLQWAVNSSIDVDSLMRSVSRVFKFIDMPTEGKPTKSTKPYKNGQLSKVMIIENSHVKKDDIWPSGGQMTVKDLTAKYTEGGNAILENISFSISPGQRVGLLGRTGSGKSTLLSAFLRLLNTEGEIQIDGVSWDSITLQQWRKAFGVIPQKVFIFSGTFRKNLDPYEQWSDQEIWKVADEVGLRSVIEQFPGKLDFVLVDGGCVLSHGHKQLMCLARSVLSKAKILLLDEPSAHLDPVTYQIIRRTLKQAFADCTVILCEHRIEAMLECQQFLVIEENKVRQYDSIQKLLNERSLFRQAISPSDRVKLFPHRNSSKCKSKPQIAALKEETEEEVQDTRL
T3 sequence (P13569 whole entry G1349D): as the sequence (P13569 whole entry S549N) above, with N549S, G1349D counted along it
T2 sequence (P13569 whole entry G178R): as the sequence (P13569 whole entry S549N) above, with G178R, N549S counted along it
T1 sequence (P13569 with tags, fused parts or gaps DEL508-508): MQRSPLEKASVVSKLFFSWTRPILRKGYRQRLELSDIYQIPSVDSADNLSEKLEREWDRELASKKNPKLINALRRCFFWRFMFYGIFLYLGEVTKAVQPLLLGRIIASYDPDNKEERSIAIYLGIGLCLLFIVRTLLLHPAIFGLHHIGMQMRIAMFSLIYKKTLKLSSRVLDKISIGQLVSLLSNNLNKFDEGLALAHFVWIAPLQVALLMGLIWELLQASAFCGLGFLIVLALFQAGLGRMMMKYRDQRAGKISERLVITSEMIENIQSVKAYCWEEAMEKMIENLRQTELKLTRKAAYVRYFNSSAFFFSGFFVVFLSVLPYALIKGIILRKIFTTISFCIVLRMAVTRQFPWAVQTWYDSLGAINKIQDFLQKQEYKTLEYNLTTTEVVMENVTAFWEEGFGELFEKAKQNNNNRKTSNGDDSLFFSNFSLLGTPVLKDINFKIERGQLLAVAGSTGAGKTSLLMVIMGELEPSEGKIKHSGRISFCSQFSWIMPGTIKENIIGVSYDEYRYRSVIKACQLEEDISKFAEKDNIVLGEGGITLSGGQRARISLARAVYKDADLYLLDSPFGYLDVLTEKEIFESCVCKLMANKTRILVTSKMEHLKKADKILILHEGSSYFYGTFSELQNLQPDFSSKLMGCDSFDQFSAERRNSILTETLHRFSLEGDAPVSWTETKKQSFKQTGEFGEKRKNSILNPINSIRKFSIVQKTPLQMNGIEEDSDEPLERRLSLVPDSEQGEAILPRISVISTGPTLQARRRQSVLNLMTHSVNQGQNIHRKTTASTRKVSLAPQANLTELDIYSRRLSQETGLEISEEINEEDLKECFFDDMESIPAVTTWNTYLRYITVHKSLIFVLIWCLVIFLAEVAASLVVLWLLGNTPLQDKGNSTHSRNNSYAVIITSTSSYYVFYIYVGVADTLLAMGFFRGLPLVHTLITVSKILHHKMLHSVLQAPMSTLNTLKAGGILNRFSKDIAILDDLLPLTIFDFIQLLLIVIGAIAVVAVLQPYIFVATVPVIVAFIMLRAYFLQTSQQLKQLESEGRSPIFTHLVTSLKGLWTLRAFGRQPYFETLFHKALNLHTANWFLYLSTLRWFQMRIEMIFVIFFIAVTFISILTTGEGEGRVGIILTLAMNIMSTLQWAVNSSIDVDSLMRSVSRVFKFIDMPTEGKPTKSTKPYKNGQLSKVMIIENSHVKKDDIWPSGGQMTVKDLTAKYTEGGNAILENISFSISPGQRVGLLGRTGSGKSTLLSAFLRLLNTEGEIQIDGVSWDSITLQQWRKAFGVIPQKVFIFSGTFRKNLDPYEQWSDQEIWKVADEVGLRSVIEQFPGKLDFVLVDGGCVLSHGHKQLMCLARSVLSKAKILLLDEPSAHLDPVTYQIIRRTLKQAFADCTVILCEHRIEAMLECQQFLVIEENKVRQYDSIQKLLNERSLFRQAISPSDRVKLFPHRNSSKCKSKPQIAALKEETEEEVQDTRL
T4 sequence (P13569 whole entry G551D): as the sequence (P13569 whole entry S549N) above, with N549S, G551D counted along it
Sequence of CFTR G551D (P13569 whole entry G551D): as the sequence (P13569 whole entry S549N) above, with N549S, G551D counted along it
T6 sequence (P13569 whole entry R117H): as the sequence (P13569 whole entry S549N) above, with R117H, N549S counted along it
T5 sequence (P13569 with tags, fused parts or gaps DEL508-508): as the sequence (P13569 with tags, fused parts or gaps DEL508-508) above

SMILES | pEC50 (CFTR ΔF508 mutant [1]) | pEC50 (CFTR-G178R) | pEC50 (CFTR-G1349D) | pEC50 (CFTR G551D mutant) | pEC50 (CFTR ΔF508) | pEC50 (CFTR-R117H) | pEC50 (CFTR-S549N) | pEC50 (CFTR G551D) | pEC50 (CFTR ΔF508 mutant [2]) | AUC(0-t) (Lung distribution study)
COCc1c[nH]nc1C(=O)Nc1sc2c(c1C(N)=O)CC(C)(C)OC2(C)C [Compound 105, N-(3-carbamoyl-5,5,7,7-tetramethyl-4H-thieno[2,3-c]pyran-2-yl)-4-(methoxymethyl)-1H-pyrazole-3-carboxamide] | 8.18 | 7.26 | 6.92 | 6.14 | 7.26 | 6.36 | 6.53 |  |  | 
Cc1cn[nH]c1C(=O)Nc1sc2c(c1C(N)=O)CC(C)(C)OC2(C)C [Compound 35, N-(3-carbamoyl-5,5,7,7-tetramethyl-5,7-dihydro-4H-thieno[2,3-c]pyran-2-yl)-4-methyl-1H-pyrazole-3-carboxamide] | 8.61 | 7.36 | 6.93 | 6.74 |  | 6.74 | 6.92 | 7.36 | 8.52 | 
CC(C)(C)CC(O)C(=O)Nc1sc2c(c1C(N)=O)CC(C)(C)OC2(C)C (single isomer, unassigned) [Compound 110, 2-[[2-hydroxy-4,4-dimethyl-pentanoyl]amino]-5,5,7,7-tetramethyl-4H-thieno[2,3-c]pyran-3-carboxamide] | 9.18 | 7.65 | 6.85 | 6.68 |  | 7.30 | 6.58 | 6.72 |  | 
CC1(C)Cc2c(sc(NC(=O)C3(O)CCOCC3)c2C(N)=O)C(C)(C)O1 [Compound 154, 2-[(4-hydroxytetrahydropyran-4-carbonyl)amino]-5,5,7,7-tetramethyl-4H-thieno[2,3-c]pyran-3-carboxamide] | 7.20 | 5.48 | 5.48 |  | 6.30 | 5.80 | 5.62 |  |  | 
CC1(C)Cc2c(sc(NC(=O)c3cnco3)c2C(N)=O)C(C)(C)O1 [Compound 136, N-(3-carbamoyl-5,5,7,7-tetramethyl-4H-thieno[2,3-c]pyran-2-yl)oxazole-5-carboxamide] | 7.09 | 6.10 | 5.92 | 5.60 |  | 6.09 | 5.58 | 4.20 |  | 
CCc1cc(C(=O)Nc2sc3c(c2C(N)=O)CC(C)(C)OC3(C)C)n[nH]1 [Compound 17, N-(3-carbamoyl-5,5,7,7-tetramethyl-5,7-dihydro-4H-thieno[2,3-c]pyran-2-yl)-5-ethyl-1H-pyrazole-3-carboxamide] | 7.99 |  |  | 6.72 |  |  |  |  | 7.81 | 290 ng·h/mL

From patent US9351955B2, “Compounds and pharmaceutical compositions thereof for the treatment of cystic fibrosis” (Galapagos NV, priority 2013, dated 2016)
